From patent US10899738B2 (THE REGENTS OF THE UNIVERSITY OF MICHIGAN, priority 2016, dated 2021)
Like-named read-outs stand apart in the source and are kept apart here.

Assays:
[1] = Cell growth inhibition, CellTiter-Glo Luminescent Cell Viability Assay; type: cell-based
Method in brief: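 Cells seeded at 2,000/well with serially diluted compound and cultured 4 days at 37 °C, 5% CO2. Viability read by CellTiter-Glo luminescence; IC50 derived from dose-response.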

[2] = biological target: menin protein (Homo sapiens (Human), UniProt O00255); assay: biochemical; type: binding; details: FP competitive binding; menin protein 4 nM, FAM-MM2 probe 2 nM; read-out: Menin Binding Affinity IC50
Sequence of menin protein (O00255 whole entry): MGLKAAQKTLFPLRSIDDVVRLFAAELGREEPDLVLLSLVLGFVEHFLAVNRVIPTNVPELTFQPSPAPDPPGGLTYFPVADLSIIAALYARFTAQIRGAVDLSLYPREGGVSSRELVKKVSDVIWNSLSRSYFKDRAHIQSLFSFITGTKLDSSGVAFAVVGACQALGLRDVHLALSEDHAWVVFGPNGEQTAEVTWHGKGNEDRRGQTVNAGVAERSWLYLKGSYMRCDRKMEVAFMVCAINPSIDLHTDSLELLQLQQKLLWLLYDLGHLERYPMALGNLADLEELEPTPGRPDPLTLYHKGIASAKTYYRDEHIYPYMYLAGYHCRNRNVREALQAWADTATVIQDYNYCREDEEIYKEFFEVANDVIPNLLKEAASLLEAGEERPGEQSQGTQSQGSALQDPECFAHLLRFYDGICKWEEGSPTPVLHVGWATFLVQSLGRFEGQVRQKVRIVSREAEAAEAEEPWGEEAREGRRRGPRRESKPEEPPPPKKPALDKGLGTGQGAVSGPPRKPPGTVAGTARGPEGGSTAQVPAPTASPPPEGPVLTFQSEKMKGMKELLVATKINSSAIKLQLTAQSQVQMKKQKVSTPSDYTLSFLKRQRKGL
Method in brief: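 Test compounds displaced FAM-MM2 (2 nM) from 4 nM menin after 30 min equilibration at room temperature in PBS buffer containing bovine γ-globulin, 4% DMSO and Triton X-100. Binding was followed by fluorescence polarization. Competition curves were fitted by nonlinear regression to give IC50 and Ki.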

[3] = MOLM-13, 96 h, read-out: Cell Growth Inhibition IC50 (μM) MOLM13, MOLM13 cells, 4 days, CellTiter-Glo
[4] = MV4-11, 96 h, read-out: Cell Growth Inhibition IC50 (μM) MV4, 11, MV4, 11 cells, 4 days, CellTiter-Glo
[5] = MOLM-13, 96 h, MOLM13 cells, 4 days, CellTiter-Glo, read-out: Cell Growth Inhibition IC50 (μM) MOLM13
[6] = MV4-11, 96 h, MV4, 11 cells, 4 days, CellTiter-Glo, read-out: Cell Growth Inhibition IC50 (μM) MV4, 11

| Compound | IC50 [1, 3] | IC50 [1, 4] | IC50 [2] | IC50 [1, 5] | IC50 [1, 6] |
| --- | --- | --- | --- | --- | --- |
| CNC(=O)O[C@H]1CCC[C@@H]1[C@](C#N)(c1ccccc1)C1CCN(CC2CN(c3ccc(S(=O)(=O)c4ccncc4)cc3)C2)CC1 (mixture of isomers) [compound 353, rac-(1S,2R)-2-((S)-cyano(phenyl)(1-((1-(4-(pyridin-4-ylsulfonyl)phenyl)azetidin-3-yl)methyl)piperidin-4-yl)methyl)cyclopentyl methylcarbamate] | 0.25 µM | 0.075 µM | 6 nM | – | – |
| c1cnc(N2CC(CN3CCC(C4(C5CCCC5)NCCc5ccccc54)CC3)C2)nc1 (stereo not drawn) [compound 111, 1-cyclopentyl-1-(1-((1-(pyrimidin-2-yl)azetidin-3-yl)methyl)piperidin-4-yl)-1,2,3,4-tetrahydroisoquinoline] | – | – | 46200 nM | 96.2 µM | 14.4 µM |
| O=S(=O)(c1ccncc1)c1ccc(N2CC(CN3CCC(C4(C5CCCC5)CN(C5CCC5)Cc5ccccc54)CC3)C2)cc1 (stereo not drawn) [compound 49, 2-cyclobutyl-4-cyclopentyl-4-(1-((1-(4-(pyridin-4-ylsulfonyl)phenyl)azetidin-3-yl)methyl)piperidin-4-yl)-1,2,3,4-tetrahydroisoquinoline] | – | – | 9 nM | 4 µM | 0.898 µM |
| CCS(=O)(=O)c1ccc(N2CC(CN3CCC(C4(C5CCCC5)NCCc5ccccc54)CC3)C2)cc1 (stereo not drawn) [compound 133, 1-cyclopentyl-1-(1-((1-(4-(ethylsulfonyl)phenyl)azetidin-3-yl)methyl)piperidin-4-yl)-1,2,3,4-tetrahydroisoquinoline] | – | – | 30 nM | 2.9 ± 0.8 µM | 1.7 ± 1 µM |
| CCc1nccn1CC(c1ccccc1)(C1CCN(CC2CN(c3ccc(C#N)cc3)C2)CC1)[C@H]1CCC[C@@H]1OC(=O)NC (mixture of isomers) [compound 408, rac-(1S,2R)-2-(1-(1-((1-(4-cyanophenyl)azetidin-3-yl)methyl)piperidin-4-yl)-2-(2-ethyl-1H-imidazol-1-yl)-1-phenylethyl)cyclopentyl methylcarbamate] | 0.017 ± 0.007 µM | 0.005 ± 0.002 µM | 3 nM | – | – |
| O=S(=O)(CC1CCCCC1)c1ccc(N2CC(CN3CCC(C4(C5CCCC5)NCCc5ccccc54)CC3)C2)cc1 (stereo not drawn) [compound 93, 1-(1-((1-(4-((cyclohexylmethyl)sulfonyl)phenyl)azetidin-3-yl)methyl)piperidin-4-yl)-1-cyclopentyl-1,2,3,4-tetrahydroisoquinoline] | – | – | 52 nM | 1.1 ± 0.7 µM | 0.779 ± 0.068 µM |
| CNC(=O)N[C@H]1CCC[C@@H]1C1(C2CCN(CC3CN(c4ccc(S(=O)(=O)C5CC5)cc4)C3)CC2)CN(C(C)C)Cc2ccccc21 (mixture of isomers) [compound 288, rac-1-((1S,2R)-2-(4-(1-((1-(4-(cyclopropylsulfonyl)phenyl)azetidin-3-yl)methyl)piperidin-4-yl)-2-isopropyl-1,2,3,4-tetrahydroisoquinolin-4-yl)cyclopentyl)-3-methylurea] | 48.8 µM | 0.35 µM | 12 nM | – | – |
| CCN1Cc2ccccc2C(C2CCCC2)(C2CCN(CC3CN(c4ccc(S(=O)(=O)c5ccnc6cnccc56)cc4)C3)CC2)C1 (stereo not drawn) [compound 158, 4-((4-(3-((4-(4-cyclopentyl-2-ethyl-1,2,3,4-tetrahydroisoquinolin-4-yl)piperidin-1-yl)methyl)azetidin-1-yl)phenyl)sulfonyl)-1,7-naphthyridine] | – | – | 8 nM | 1.56 µM | 0.8 µM |
| N#CC(c1ccccc1)(C1CCN(CC2CN(c3ccc(S(=O)(=O)c4ccncc4)cc3)C2)CC1)[C@H]1CCC[C@@H]1OC(N)=O (mixture of isomers) [compound 211, rac-(1S,2R)-2-(cyano(phenyl)(1-((1-(4-(pyridin-4-ylsulfonyl)phenyl)azetidin-3-yl)methyl)piperidin-4-yl)methyl)cyclopentyl carbamate] | 0.546 µM | 0.302 µM | 9 nM | – | – |
| CCc1nccn1CC(c1ccccc1)(C1CCN(CC2CN(c3ccc(C#N)cc3)C2)CC1)[C@@H]1CCC[C@H]1OC(=O)NC (mixture of isomers) [compound 409, rac-(1R,2S)-2-(1-(1-((1-(4-cyanophenyl)azetidin-3-yl)methyl)piperidin-4-yl)-2-(2-ethyl-1H-imidazol-1-yl)-1-phenylethyl)cyclopentyl methylcarbamate] | 1.6 µM | 1.7 µM | 116 nM | – | – |
| CCN1Cc2ccccc2C(C2CCN(CC3CN(c4ccc(S(=O)(=O)C5CC5)cc4)C3)CC2)([C@H]2CCC[C@@H]2NC(=O)NC)C1 (mixture of isomers) [compound 289, rac-1-((1S,2R)-2-(4-(1-((1-(4-(cyclopropylsulfonyl)phenyl)azetidin-3-yl)methyl)piperidin-4-yl)-2-ethyl-1,2,3,4-tetrahydroisoquinolin-4-yl)cyclopentyl)-3-methylurea] | 0.32 µM | 0.17 µM | 4 nM | – | – |
| COC(=O)N[C@H]1CCC[C@@H]1C(C#N)(c1ccccc1)C1CCN(CC2CN(c3ccc(S(=O)(=O)c4ccc(C(N)=O)cc4)cc3)C2)CC1 (mixture of isomers) [compound 399, methyl rac-((1S,2R)-2-((1-((1-(4-((4-carbamoylphenyl)sulfonyl)phenyl)azetidin-3-yl)methyl)piperidin-4-yl)(cyano)(phenyl)methyl)cyclopentyl)carbamate] | 1.63 µM | 0.11 µM | 7 nM | – | – |
| COC(=O)N[C@H]1CCC[C@@H]1C(C#N)(c1ccccc1)C1CCN(CC2(F)CN(c3ccc(S(=O)(=O)c4cnn(C)c4)cc3)C2)CC1 (mixture of isomers) [compound 397, methyl rac-((1S,2R)-2-(cyano(1-((3-fluoro-1-(4-((1-methyl-1H-pyrazol-4-yl)sulfonyl)phenyl)azetidin-3-yl)methyl)piperidin-4-yl)(phenyl)methyl)cyclopentyl) carbamate] | > 10 µM | 4.54 µM | 186 nM | – | – |
| CNC(=O)O[C@H]1CCC[C@@H]1C(C#N)(c1ccccc1)C1CCN(CC2CN(c3ccc(S(=O)(=O)c4ccccc4)cc3)C2)CC1 (mixture of isomers) [compound 225, rac-(1S,2R)-2-(cyano(phenyl)(1-((1-(4-(phenylsulfonyl)phenyl)azetidin-3-yl)methyl)piperidin-4-yl)methyl)cyclopentyl methylcarbamate] | 0.82 µM | 0.24 µM | 9 nM | – | – |
| O=S(=O)(c1ccc(N2CC(CN3CCC(C4(C5CCCC5)NCCc5ccccc54)CC3)C2)cc1)C1CCCC1 (stereo not drawn) [compound 146, 1-cyclopentyl-1-(1-((1-(4-(cyclopentylsulfonyl)phenyl)azetidin-3-yl)methyl)piperidin-4-yl)-1,2,3,4-tetrahydroisoquinoline] | – | – | 13 nM | 1.9 ± 1.2 µM | 0.785 ± 0.247 µM |
| O=S(=O)(c1ccc(N2CC(CN3CCC(C4(C5CCCC5)NCCc5ccccc54)CC3)C2)cc1)C1CCC1 (stereo not drawn) [compound 85, 1-(1-((1-(4-(cyclobutylsulfonyl)phenyl)azetidin-3-yl)methyl)piperidin-4-yl)-1-cyclopentyl-1,2,3,4-tetrahydroisoquinoline] | – | – | 36 nM | 4.2 µM | 1.6 µM |
| CNC(=O)N[C@H]1CCC[C@@H]1C1(C2CCN(CC3CN(c4ccc(S(=O)(=O)c5ccncc5)cc4)C3)CC2)CN(C)Cc2ccccc21 (mixture of isomers) [compound 277, rac-1-methyl-3-((1S,2R)-2-(2-methyl-4-(1-((1-(4-(pyridin-4-ylsulfonyl)phenyl)azetidin-3-yl)methyl)piperidin-4-yl)-1,2,3,4-tetrahydroisoquinolin-4-yl)cyclopentyl)urea] | 0.43 µM | 0.12 µM | 8 nM | – | – |
| CC(=O)O[C@H]1CCC[C@@H]1C(C#N)(c1ccccc1)C1CCN(CC2CN(c3ccc(S(=O)(=O)C4CC4)cc3)C2)CC1 (mixture of isomers) [compound 187, rac-(1S,2R)-2-(cyano(1-((1-(4-(cyclopropylsulfonyl)phenyl)azetidin-3-yl)methyl)piperidin-4-yl)(phenyl)methyl)cyclopentyl acetate] | 1.9 ± 0.7 µM | 1.2 ± 0.3 µM | 18 nM | – | – |
| CNC(=O)O[C@H]1CCC[C@@H]1C(C#N)(c1ccccc1)C1CCN(CC2CN(c3ccc(S(=O)(=O)c4nn(C)cc4Br)cc3)C2)CC1 (mixture of isomers) [compound 228, rac-(1S,2R)-2-((1-((1-(4-((4-bromo-1-methyl-1H-pyrazol-3-yl)sulfonyl)phenyl)azetidin-3-yl)methyl)piperidin-4-yl)(cyano)(phenyl)methyl) cyclopentyl methylcarbamate] | 0.25 µM | 0.18 µM | 4 nM | – | – |
| COC(=O)N[C@H]1CCC[C@@H]1C(C#N)(c1ccccc1)C1CCN(CC2CN(c3ccc(S(=O)(=O)c4ccc(C(=O)O)cc4)cc3)C2)CC1 (mixture of isomers) [compound 351, rac-4-((4-(3-((4-(cyano((1R,2S)-2-((methoxycarbonyl)amino)cyclopentyl)(phenyl)methyl)piperidin-1-yl)methyl)azetidin-1-yl)phenyl)sulfonyl)benzoic acid] | 16.1 µM | 3.02 µM | 15 nM | – | – |
